How the values were obtained:
[1] = system: Canis familiaris; assay: Hypotensive activity in iv dosed PGE2-treated Mongrel dog assessed as change in blood pressure of greater than 10 mm by mercury manometer relative to PGE2; assay type: functional, Canis lupus familiaris
[2] = system: Mus musculus; assay: Induction of diarrheal activity in conscious mouse at 0.1 to 3 mg/kg, iv administered for 30 mins relative to PGE2; assay type: organism-based; set-up: dose 0.1-3 mg/kg, route intravenous; conditions: in vivo, 0.5 h
[3] = Spasmogenic activity in nulliparous guinea pig uterine relative to PGE2; assay type: functional, Cavia porcellus, Uterus
[4] = system: Cavia porcellus; assay: Bronchodilator activity in Reed-Willet guinea pig assessed as inhibition of histamine-induced bronchoconstriction at 0.28 mM administered through nebulizer for 1 min relative to PGE2; assay type: functional
[5] = system: Rattus norvegicus; assay: Antisecretory activity in rat assessed as inhibition of pentagastrin-stimulated gastric acid secretion at 10 ug/kg, iv relative to PGE2; assay type: functional, Stomach
[6] = system: Rattus norvegicus; assay: Antisecretory activity in rat assessed as inhibition of pentagastrin-stimulated gastric acid secretion at 50 ug/kg, iv relative to PGE2; assay type: functional, Stomach
[7] = Dissociation constant, pKa of the compound; assay type: physicochemical

Structure (SMILES) | fold change (FC) [2] | pKa [7] | fold change (FC) [1] | fold change (FC) [3] | fold change (FC) [4] | fold change (FC) [5] | fold change (FC) [6]
CCCCC[C@H](O)/C=C/[C@H]1[C@H](O)CC(=O)[C@@H]1C/C=C\CCCC(=O)NS(=O)(=O)c1ccccc1 | 33 |  | <0.5 | 3.1 | 28 |  | 20
CCCCC[C@H](O)/C=C/[C@@H]1[C@@H](C/C=C\CCCC(=O)NC(C)=O)[C@@H](O)C[C@H]1O | 78 |  | <0.5 | 30 |  |  | 
CCCCC[C@H](O)/C=C/[C@@H]1[C@@H](C/C=C\CCCC(=O)NC(=O)c2ccccc2)[C@@H](O)C[C@H]1O | < 5 |  | 0.5 | 0.9 |  |  | 
CCCCC[C@H](O)/C=C/[C@@H]1[C@@H](C/C=C\CCNC(=O)NC(C)=O)[C@@H](O)C[C@H]1O | < 5 |  | <0.5 | <0.1 |  |  | 
CCCCC[C@H](O)/C=C/[C@@H]1[C@@H](C/C=C\CCCC(=O)NC(=O)NCC)[C@@H](O)C[C@H]1O | < 10 |  | <0.5 | <0.1 |  |  | 
CCCCC[C@H](O)/C=C/[C@@H]1[C@@H](C/C=C\CCCC(=O)NS(C)(=O)=O)[C@@H](O)C[C@H]1O | 25 |  | <0.5 | <0.1 |  |  | 
CCCCC[C@H](O)/C=C/[C@@H]1[C@@H](C/C=C\CCCC(=O)NS(=O)(=O)c2ccccc2)[C@@H](O)C[C@H]1O | < 10 |  | <0.5 | <0.1 |  |  | 
CCCCC[C@H](O)/C=C/[C@@H]1[C@@H](C/C=C\CCCC(N)=O)[C@@H](O)C[C@H]1O | < 5 |  | 2.5 | <0.1 |  |  | 
c1ccc([P+](CCCCc2nnn[nH]2)(c2ccccc2)c2ccccc2)cc1 |  | 4.93 |  |  |  |  | 
CC(=O)NC(=O)CCCC[P+](c1ccccc1)(c1ccccc1)c1ccccc1 |  | 12.9 |  |  |  |  | 
O=C(CCCC[P+](c1ccccc1)(c1ccccc1)c1ccccc1)NC(=O)c1ccccc1 |  | 12.9 |  |  |  |  | 
CS(=O)(=O)NC(=O)CCCC[P+](c1ccccc1)(c1ccccc1)c1ccccc1 |  | 5.25 |  |  |  |  | 
O=C(CCCC[P+](c1ccccc1)(c1ccccc1)c1ccccc1)NS(=O)(=O)c1ccccc1 |  | 5.12 |  |  |  |  | 
NC(=O)CCCC[P+](c1ccccc1)(c1ccccc1)c1ccccc1 |  | 15.1 |  |  |  |  | 
O=C(O)CCCC[P+](c1ccccc1)(c1ccccc1)c1ccccc1 |  | 5.19 |  |  |  |  | 
CCCCC[C@H](O)/C=C/[C@@H]1[C@@H](C/C=C\CCCC(=O)O)[C@@H](O)C[C@H]1O [DINOPROST] | 6.5 |  | 10 | 10 |  |  | 

Second part, led by results:

fold change (FC) [2] | pKa [7] | Structure (SMILES) | fold change (FC) [1] | fold change (FC) [3] | fold change (FC) [4] | fold change (FC) [5] | fold change (FC) [6]
5300 |  | CCCCC(C)(C)[C@H](O)/C=C/[C@H]1[C@H](O)CC(=O)[C@@H]1C/C=C\CCCC(=O)O | 10 | 33 | 41 | 360 | 
50 |  | CCCCC[C@H](O)/C=C/[C@H]1[C@H](O)CC(=O)[C@@H]1C/C=C\CCCc1nnn[nH]1 | 10 | 100 | 65 |  | 35
100 |  | CCCCC[C@H](O)/C=C/[C@H]1[C@H](O)CC(=O)[C@@H]1C/C=C\CCCC(=O)NC(C)=O | 25 | 65 | 63 |  | 160
83 |  | CCCCC[C@H](O)/C=C/[C@H]1[C@H](O)CC(=O)[C@@H]1C/C=C\CCCC(=O)NC(=O)c1ccccc1 | 10 | 67 | 87 |  | 40
< 5 |  | CCCCC[C@H](O)/C=C/[C@H]1[C@H](O)CC(=O)[C@@H]1C/C=C\CCNC(=O)NC(C)=O | <0.5 | <0.1 | 25 |  | 0
27 |  | CCCCC[C@H](O)/C=C/[C@H]1[C@H](O)CC(=O)[C@@H]1C/C=C\CCCC(=O)NC(=O)NCC | 0.5 | 0.2 | 28 |  | 0
10 |  | CCCCC[C@H](O)/C=C/[C@H]1[C@H](O)CC(=O)[C@@H]1C/C=C\CCCC(=O)NS(C)(=O)=O | 1 | 7 | 47 |  | 12
10 |  | CCCCC[C@H](O)/C=C/[C@H]1[C@H](O)CC(=O)[C@@H]1C/C=C\CCCC(N)=O | 10 | 0.6 | 28 |  | 0
< 5 |  | CCCCC[C@H](O)/C=C/[C@@H]1[C@@H](C/C=C\CCCc2nnn[nH]2)[C@@H](O)C[C@H]1O | 2.5 | 0.8 |  |  | 
2550 |  | CCCCC(C)(C)[C@H](O)/C=C/[C@H]1[C@H](O)CC(=O)[C@@H]1C/C=C\CCCc1nnn[nH]1 | 10 | 120 | 76 | 130 | 
1250 |  | CCCCC(C)(C)[C@H](O)/C=C/[C@H]1[C@H](O)CC(=O)[C@@H]1C/C=C\CCCC(=O)NC(C)=O | 2.5 | 100 | 24 | 330 | 
1350 |  | CCCCC(C)(C)[C@H](O)/C=C/[C@H]1[C@H](O)CC(=O)[C@@H]1C/C=C\CCCC(=O)NS(C)(=O)=O | <0.5 | 25 | 28 | 220 | 

From ChEMBL document CHEMBL3244067, “Synthesis and biological activity of carboxyl-terminus modified prostaglandin analogues” (J Med Chem, 1979)
